Converted amounts (≈) assume the structure as drawn. Read-outs that look alike come from different tables or passages of the source.
Legend:
[1] = Encochleation efficiency by lipid composition, drug in supernatant after centrifugation; type: physicochemical; settings: independent of the lipid composition of the PS vesicles
Protocol: For example, incorporation of phosphatidylserine (PS) combined with 99.9% pure dioleoyl PS, 99.9% pure soy PS, 75% soy PS and 50% soy PS, were used to manufacture cochleates. The lipid composition of 99.9% pure PS was modified by the addition of sphingomyelin, phosphatidylcholine and/or cholesterol. Encochleation efficiency was determined by assaying the concentration of drug in the supernatant following centrifugation.

[2] = test system: M. avium 101; experiment: M. avium 101-infected mouse peritoneal macrophages (Raw 264.7), intracellular bacteria after 4 days of treatment; type: cell-based, Mycobacterium avium
Protocol: (§1) Amikacin cochleate (Amkcch) formulations were optimized for amikacin encochleation efficiency and particle size by varying the type of PS used, the PS:drug ratio, PS:Ca ratio, and NaCl concentration. The efficacy of Amkcch against intracellular Ma infections was evaluated in vitro using mouse peritoneal macrophage infected with M. avium strains MAC 101 or MAC 109. Mouse peritoneal macrophages (Mo) Raw 264.7 cells were seeded at 10^5 cells/well. Mo monolayers were infected at ratio 1:10 for 1 h and extracellular bacteria removed. Monolayers were treated with free amikacin and/or cochleate preparations for 4 days and the number of intracellular bacteria determined. Assays were repeated three times.
as §1, with “The” for “Amikacin cochleate (Amkcch) formulations were optimized for amikacin encochleation efficiency and particle size by varying the type of PS used, the PS:drug ratio, PS:Ca ratio, and NaCl concentration. The”, “Amkcch against,” for “Amkcch against”, “1 hour” for “1 h”
The cochleate preparations used to evaluate biological activity against Mycobacterium avium in vitro included: 1. 2.0 ml/vial of 0 M NaCl amikacin formulation with 0.5 mg/ml; 2. 2.0 ml/vial of 0.066M NaCl amikacin formulation with 0.5 mg/ml; 3. 2.0 ml/vial of 0.33M NaCl amikacin formulation with 0.5 mg/ml; 4. 2.0 ml/vial of 0.66M NaCl amikacin formulation with 0.5 mg/ml; 5. 2.0 ml/vial of 0 M NaCl placebo formulation with 5 mg PS/ml; 6. 2.0 ml/vial of placebo formulation plus amikacin with 0.5 mg/ml; and 7. 2.0 ml/vial of free amikacin in water with 0.5 mg/ml.

[3] = test system: M. avium 109; experiment: M. avium 109-infected mouse peritoneal macrophages (Raw 264.7), intracellular bacteria after 4 days of treatment; type: cell-based, Mycobacterium avium; settings: inoculum 2.4 ± 0.3 × 10^5, untreated 3.1 ± 0.6 × 10^6
Protocol: as §1
as §1, with “The” for “Amikacin cochleate (Amkcch) formulations were optimized for amikacin encochleation efficiency and particle size by varying the type of PS used, the PS:drug ratio, PS:Ca ratio, and NaCl concentration. The”, “Amkcch against,” for “Amkcch against”, “1 hour” for “1 h”
The cochleate preparations used to evaluate biological activity against Mycobacterium avium in vitro included: 1. 2.0 ml/vial of 0 M NaCl amikacin formulation with 0.5 mg/ml; 2. […]

[4] = test system: F. tularensis LVS; type: cell-based, Francisella tularensis; settings: no treatment 3.0 ± 0.3 × 10^6
[5] = test system: M. avium; settings: cited from earlier work
[6] = test system: M. avium 101; experiment: Splenic bacterial counts in M. avium 101-infected C57BL/6 mice; type: in vivo, Mycobacterium avium; settings: 1 mg amikacin/mouse/day, 2 weeks, 3 weeks infected control 7.8 ± 0.4 × 10^7
[7] = test system: MAC 101; experiment: MIC against susceptible M. avium strain MAC 101; settings: Mycobacterium avium, such as MAC 101
[8] = test system: MAC184 strain; experiment: MIC against clarithromycin-resistant clinical isolate MAC184; parameters: species or system M. avium; settings: Mycobacterium avium

## C[C@@H]1[C@H](O)[C@@H](C)/C=C/C=C/C=C/C=C/C=C/C=C/C=C/[C@H](O[C@@H]2O[C@H](C)[C@@H](O)[C@H](N)[C@@H]2O)C[C@@H]2O[C@](O)(C[C@@H](O)C[C@@H](O)[C@H](O)CC[C@@H](O)C[C@@H](O)CC(=O)O[C@H]1C)C[C@H](O)[C@H]2C(=O)O [AmB, Amphotericin B]
[1]
  encochleation efficiency: greater than 85%

## NCC[C@H](O)C(=O)N[C@@H]1C[C@H](N)[C@@H](O[C@H]2O[C@H](CN)[C@@H](O)[C@H](O)[C@H]2O)[C@H](O)[C@H]1O[C@H]1O[C@H](CO)[C@@H](O)[C@H](N)[C@H]1O [Free amikacin, amikacin]
[2]; 20 μg/l, inoculum 3.8 ± 0.4 × 10^5, untreated 4.9 ± 0.5 × 10^6
  # bacteria day 4: 3.8 ± 0.5 × 10^4
[2]; inoculum 3.8 ± 0.4 × 10^5, untreated 4.9 ± 0.5 × 10^6
  # bacteria day 4: 4.9 ± 0.3 × 10^4
[3]; 10 μg/l
  # bacteria day 4: 5.0 ± 0.3 × 10^4
[3]; 20 μg/l
  # bacteria day 4: 2.9 ± 0.4 × 10^4
[4]; amikacin 4 μg/ml
  intracellular bacteria Day 4: 7.6 ± 0.3 × 10^2 CFU/ml
[5]
  frequency of resistance: 10^−11
[6]; I.P.
  CFU/spleen: 9.3 ± 0.4 × 10^6 CFU/spleen
[6]; oral
  CFU/spleen: 6.9 ± 0.3 × 10^7 CFU/spleen

## CC[C@@H](CO)NCCN[C@@H](CC)CO [ethambutol]
[7]
  MIC: 4 µg/mL (≈ 19.6 µM)
[8]
  MIC: 8 µg/mL (≈ 39.2 µM)

## gentamicin [Free gentamicin]
[2]; gentamicin 30 μg/ml (30 μg/l in two rows), untreated 6.4 ± 0.5 × 10^6
  # bacteria day 4: 1.9 ± 0.3 × 10^5
[4]; gentamicin 2 μg/ml
  intracellular bacteria Day 4: 9.3 ± 0.3 × 10^2 CFU/ml

Reference: patent publication US20140220108A1, “COCHLEATE COMPOSITIONS AND METHODS OF MAKING AND USING SAME” (priority 2011, published 2014)
